Source: patent US6914045B2, “Glycopeptide antibiotics” (Wyeth Holdings Corporation, priority 2001, dated 2005)
≈ marks a conversion by molar mass, not a printed value. Numbered stars: 1 amine (or outer) side, 2 acyl side, 3 side chain; on linkers, the order of the positions; unused ones are H or OH. Square brackets hold non-standard residues; d marks the D form. Peptide text beside a SMILES is read from it. ξ: configuration not given here. X1 = N=C1NCC(C(O)C(N[*:1])C(=O)[*:2])N1C1OC(CO)C(O)C(O)C1O; ξEnduracididine(βξ-OH,4'ξ) = N=C1NCC(C(O)C(N)C(=O)O)N1; Cha = N[CH](CC1CCCCC1)C(=O)O

Assays:
Enterococcus sp. = assay: in vitro antibacterial evaluation, MIC by broth dilution; type: cell-based; settings: broth dilution, 18 hours at 35° C.
In short: (§1)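 Broth dilution per NCCLS standard M7-A2 in Muller-Hinton II […], with an inoculum of 5×10^5 CFU/mL and antibiotic spanning 64-0.06 μg/mL. The MIC is the lowest concentration that inhibits growth of the organism.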

Staphylococcus sp. = assay: as above; type: cell-based; settings: broth dilution, 18 hours at 35° C.
In short: as §1

Streptococcus sp. = assay: as above; type: cell-based; settings: broth dilution, 18 hours at 35° C.
In short: as §1

[1] = clinical pathology (serum clinical chemistry) in mice; type: in vivo; settings: CD-1 mice, 20 mg/kg intravenously daily for 9 days, sera day 10
Method: 20-day-old CD-1 mice were divided into a vehicle control group (5 mice) and a treatment group (5 mice). Samples of glycopeptide antibiotics were administered at 20 mg/kg intravenously daily for 9 days.

[2] = anatomic pathology (histopathology of heart and kidney) in mice; type: in vivo; settings: CD-1 mice, 20 mg/kg intravenously daily for 9 days, necropsy day 10, microscopic histopathology
Method: Samples of tissues from necropsied mice were formalin-fixed, paraffin-embedded, sectioned, stained with hematoxylin and eosin, and examined microscopically. Histopathologic findings were recorded. These findings were subjectively graded on a scale corresponding to slight, mild, moderate, marked and severe as compared to untreated controls.

Escherichia coli = assay: in vitro antibacterial evaluation, MIC by broth dilution; type: cell-based; settings: broth dilution, 18 hours at 35° C.
In short: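 Broth dilution in Muller-Hinton II medium per NCCLS standard M7-A2, with an inoculum of 5×10^5 CFU/mL and antibiotic tested over 64-0.06 μg/mL. MIC was taken as the lowest concentration inhibiting visible growth.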

N=C1NCC(C(O)C2NC(=O)C(CC3CCCCC3)NC(=O)C(CC3CCCCC3)NC(=O)CNC(=O)C(CO)NC(=O)C(C(O)C3CNC(=N)N3C3OC(CO)C(O)C(O)C3O)NC2=O)N1 (stereo not drawn) [Example 52, Cyclo[3-cyclohexylalanyl-3-cyclohexylalanyl-3-(2-iminoimidazolidin-4-yl)seryl-3-(3-hexopyranosyl-2-iminoimidazolidin-4-yl)serylserylglycyl]] (cyclo(G[Cha][Cha][ξEnduracididine(βξ-OH,4'ξ)][X1]S); configuration not given here)
MIC Enterococcus faecalis (ATCC 29212) (Enterococcus sp.; strain ATCC 29212): 64 µg/mL (≈ 67.2 µM)
MIC Enterococcus faecalis (GC 2242) (Enterococcus sp.; strain GC 2242): 32 µg/mL (≈ 33.6 µM)
MIC Enterococcus faecium (GC 2243) (Enterococcus sp.; strain GC 2243): 16 µg/mL (≈ 16.8 µM)
MIC Enterococcus faecalis (GC 2691) (Enterococcus sp.; strain GC 2691): 32 µg/mL (≈ 33.6 µM)
MIC Enterococcus faecalis (GC 3059) (Enterococcus sp.; strain GC 3059): 32 µg/mL (≈ 33.6 µM)
MIC Enterococcus faecalis (GC 4552) (Enterococcus sp.; strain GC 4552): 32 µg/mL (≈ 33.6 µM)
MIC Enterococcus faecalis (GC 4553) (Enterococcus sp.; strain GC 4553): 16 µg/mL (≈ 16.8 µM)
MIC Enterococcus faecalis (GC 4554) (Enterococcus sp.; strain GC 4554): 64 µg/mL (≈ 67.2 µM)
MIC Enterococcus faecium (GC 4556) (Enterococcus sp.; strain GC 4556): 32 µg/mL (≈ 33.6 µM)
MIC Enterococcus faecium (GC 4557) (Enterococcus sp.; strain GC 4557): 8 µg/mL (≈ 8.39 µM)
MIC Enterococcus avium (GC 4558) (Enterococcus sp.; strain GC 4558): 32 µg/mL (≈ 33.6 µM)
MIC Enterococcus faecalis (GC 6189) (Enterococcus sp.; strain GC 6189): 32 µg/mL (≈ 33.6 µM)
MIC Staphylococcus aureus (ATCC 29213) (Staphylococcus sp.; strain ATCC 29213): 16 µg/mL (≈ 16.8 µM)
MIC Staphylococcus aureus (GC 1131) (Staphylococcus sp.; strain GC 1131): 16 µg/mL (≈ 16.8 µM)
MIC Staphylococcus aureus (GC 3051) (Staphylococcus sp.; strain GC 3051): 16 µg/mL (≈ 16.8 µM)
MIC Staphylococcus aureus (GC 3053) (Staphylococcus sp.; strain GC 3053): 32 µg/mL (≈ 33.6 µM)
MIC Staphylococcus aureus (GC 4541) (Staphylococcus sp.; strain GC 4541): 16 µg/mL (≈ 16.8 µM)
MIC Staphylococcus aureus (GC 4542) (Staphylococcus sp.; strain GC 4542): 8 µg/mL (≈ 8.39 µM)
MIC Staphylococcus aureus-SMITH (GC 4543) (Staphylococcus sp.; strain GC 4543): 16 µg/mL (≈ 16.8 µM)
MIC Staphylococcus aureus (GC 4544) (Staphylococcus sp.; strain GC 4544): 16 µg/mL (≈ 16.8 µM)
MIC Staphylococcus aureus (GC 4545) (Staphylococcus sp.; strain GC 4545): 8 µg/mL (≈ 8.39 µM)
MIC Staphylococcus haemolyticus (GC 4546) (Staphylococcus sp.; strain GC 4546): 4 µg/mL (≈ 4.2 µM)
MIC Coagulase Negative Staphylococcus (GC 4547) (Staphylococcus sp.; strain GC 4547): 8 µg/mL (≈ 8.39 µM)
MIC Coagulase Negative Staphylococcus (GC 4548) (Staphylococcus sp.; strain GC 4548): 8 µg/mL (≈ 8.39 µM)
MIC Coagulase Negative Staphylococcus (GC 4549) (Staphylococcus sp.; strain GC 4549): 4 µg/mL (≈ 4.2 µM)
MIC Coagulase Negative Staphylococcus (GC 4551) (Staphylococcus sp.; strain GC 4551): 8 µg/mL (≈ 8.39 µM)
MIC Streptococcus pneumoniae (ATCC 6301) (Streptococcus sp.; strain ATCC 6301): 8 µg/mL (≈ 8.39 µM)
MIC Streptococcus pneumoniae (GC 1894) (Streptococcus sp.; strain GC 1894): 8 µg/mL (≈ 8.39 µM)
MIC Streptococcus pyogenes (GC 4563) (Streptococcus sp.; strain GC 4563): 8 µg/mL (≈ 8.39 µM)
MIC Streptococcus agalactiae (GC 4564) (Streptococcus sp.; strain GC 4564): 8 µg/mL (≈ 8.39 µM)
MIC Streptococcus pneumoniae (GC 4565) (Streptococcus sp.; strain GC 4565): 16 µg/mL (≈ 16.8 µM)
Clinical Chemistry (Day 10) % of Control, BUN [1]: 211%
Anatomical Pathology (Day 10), Heart [2]: 0
Anatomical Pathology (Day 10), Kidney [2]: +++
MIC Escherichia coli (ATCC 25922) (Escherichia coli; strain ATCC 25922): 64 µg/mL (≈ 67.2 µM)
MIC Escherichia coli (GC 4559) (Escherichia coli; strain GC 4559): 64 µg/mL (≈ 67.2 µM)
MIC Escherichia coli (GC 4560) (Escherichia coli; strain GC 4560): 16 µg/mL (≈ 16.8 µM)
